What is called Kd is the free concentration of one partner at which half of the binding sites on the other are occupied at equilibrium, for simple one-to-one binding.

In the first assay the target is T1, soluble ectodomain of sortilin-6his (Homo sapiens, UniProt Q99523, V650M).
T1 construct: the soluble ectodomain of sortilin-6his is measured by microscale thermophoresis (MST)
T1 sequence (Q99523 with tags, fused parts or gaps V650M): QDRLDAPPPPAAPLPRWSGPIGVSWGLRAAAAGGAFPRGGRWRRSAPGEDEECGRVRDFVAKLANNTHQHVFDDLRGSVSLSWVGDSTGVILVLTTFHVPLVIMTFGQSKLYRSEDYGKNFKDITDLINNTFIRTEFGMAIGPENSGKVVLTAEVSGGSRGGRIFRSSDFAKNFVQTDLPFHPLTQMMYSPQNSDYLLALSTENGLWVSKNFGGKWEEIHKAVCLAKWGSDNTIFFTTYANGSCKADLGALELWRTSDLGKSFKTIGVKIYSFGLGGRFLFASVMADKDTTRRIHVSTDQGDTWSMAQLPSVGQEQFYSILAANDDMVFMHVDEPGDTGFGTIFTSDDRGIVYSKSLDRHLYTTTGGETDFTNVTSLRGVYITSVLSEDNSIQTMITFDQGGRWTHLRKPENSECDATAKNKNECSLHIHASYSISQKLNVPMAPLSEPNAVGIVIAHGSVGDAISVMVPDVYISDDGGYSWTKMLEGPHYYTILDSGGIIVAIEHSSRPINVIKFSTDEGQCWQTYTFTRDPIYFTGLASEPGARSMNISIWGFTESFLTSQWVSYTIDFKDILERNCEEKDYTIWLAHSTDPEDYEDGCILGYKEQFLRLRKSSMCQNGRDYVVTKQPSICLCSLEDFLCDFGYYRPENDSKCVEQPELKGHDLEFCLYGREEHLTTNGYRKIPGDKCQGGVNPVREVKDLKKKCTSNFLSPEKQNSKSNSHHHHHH
In words: MST binding to soluble ectodomain of sortilin-6his. The settings on record: Table 4; small molecule bifunctional compounds; MST. As for the experimental part:
At this point the plate was sealed with adhesive strip and placed on an Eppendorf thermomixer to shake at 600 rpm for 3 min before spinning on a Fisherbrand plate-spinner for 15 seconds and further incubation 1 hrs at 19° C. MST was measured on a Monolith NT. Automated (Nanotemper) in standard-treated capillaries at 5% LED-power and high MST-power. Dose-response was extracted from the raw thermographs at 20 sec hot-time and the dissociation constant was estimated by sigmoidal curve fitting in MO. Affinity analysis program (Nanotemper). All experiments were run in duplicates.
Take `CC(C)(C)CC[C@H](NC(=O)COc1cccc(Oc2ccc(C(=O)NCCOCCOCCOCCOCc3cn(CCCCCOc4ncc(-c5ccc6c(n5)N(Cc5cccnc5C#N)C(C)(C)C6=O)cn4)nn3)cn2)c1)C(=O)O` [BF075, (2S)-2-[[2-[3-[[5-[2-[2-[2-[2-[[1-[5-[5-[1-[(2-cyano-3-pyridyl)methyl]-2,2-dimethyl-3-oxo-pyrrolo[2,3-b]pyridin-6-yl]pyrimidin-2-yl]oxypentyl]triazol-4-yl]methoxy]ethoxy]ethoxy]ethoxy]ethylcarbamoyl]-2-pyridyl]oxy]phenoxy]acetyl]amino]-5,5-dimethyl-hexanoic acid]: the “KD score, binding to sortilin (Kd)” value is given as 0.

The assay is the same for the next values; noted with them: Table 4; small molecule bifunctional compounds; MST; read-out: KD score, binding to sortilin (Kd).
Turning to `CC(C)(C)CC[C@H](NC(=O)c1ccc(Oc2cccc(C(=O)NCCOCCOc3ncc(-c4ccc5c(n4)N(Cc4cccnc4C#N)C(C)(C)C5=O)cn3)c2)nc1)C(=O)O` [BF053], the Kd was 1 to 10 nM.

As for `CC(C)(C)CC[C@H](NC(=O)c1ccc(Oc2cccc(C(=O)NCCOCCOCCOCCOc3ncc(-c4ccc5c(n4)N(Cc4cccnc4C#N)C(C)(C)C5=O)cn3)c2)nc1)C(=O)O` [BF054], the Kd was in the range of 1 to 10 nM.

Consider `C[C@@H]1CN(c2ncc(-c3ccc4c(n3)N(Cc3cccnc3C#N)C(C)(C)C4=O)cn2)CCN1C(=O)COCCOCCOCCNC(=O)c1cccc(Oc2ccc(C(=O)N[C@@H](CCC(C)(C)C)C(=O)O)cn2)c1` [BF056, (2S)-2-[[6-[3-[2-[2-[2-[2-[(2R)-4-[5-[1-[(2-cyano-3-pyridyl)methyl]-2,2-dimethyl-3-oxo-pyrrolo[2,3-b]pyridin-6-yl]pyrimidin-2-yl]-2-methyl-piperazin-1-yl]-2-oxo-ethoxy]ethoxy]ethoxy]ethylcarbamoyl]phenoxy]pyridine-3-carbonyl]amino]-5,5-dimethyl-hexanoic acid], for which the Kd lay in the range of 10 to 250 nM.

With `C[C@@H]1CN(c2ncc(-c3ccc4c(n3)N(Cc3cccnc3C#N)C(C)(C)C4=O)cn2)CCN1C(=O)COCCNC(=O)c1cccc(Oc2ccc(C(=O)N[C@@H](CCC(C)(C)C)C(=O)O)cn2)c1` [BF058, (S)-2-(6-(3-((2-(2-((R)-4-(5-(1-((2-cyanopyridin-3-yl)methyl)-2,2-dimethyl-3-oxo-2,3-dihydro-1H-pyrrolo[2,3-b]pyridin-6-yl)pyrimidin-2-yl)-2-methylpiperazin-1-yl)-2-oxoethoxy)ethyl)carbamoyl)phenoxy)nicotinamido)-5,5-dimethyl hexanoic acid], the Kd lay within 1 to 10 nM.

Take `CC(C)(C)CC[C@H](NC(=O)c1ccc(Oc2cccc(C(=O)NCCOCCOCCOCCOCCOCCOc3ncc(-c4ccc5c(n4)N(Cc4cccnc4C#N)C(C)(C)C5=O)cn3)c2)nc1)C(=O)O` [BF059]: the dissociation constant (Kd) is less than 1 nM.

On to `CC(C)(C)CC[C@H](NC(=O)c1ccc(Oc2cccc(C(=O)NCCOCCNc3ncc(-c4ccc5c(n4)N(Cc4cccnc4C#N)C(C)(C)C5=O)cn3)c2)nc1)C(=O)O` [BF060, (2S)-2-[[6-[3-[2-[2-[[5-[1-[(2-cyano-3-pyridyl)methyl]-2,2-dimethyl-3-oxo-pyrrolo[2,3-b]pyridin-6-yl]pyrimidin-2-yl]amino]ethoxy]ethylcarbamoyl]phenoxy]pyridine-3-carbonyl]amino]-5,5-dimethyl-hexanoic acid], for which the Kd lay in the range of 1 to 10 nM.

Regarding `CC(C)(C)CC[C@H](NC(=O)c1ccc(Oc2cccc(C(=O)NCCOCCOCCOCCOCCNc3ncc(-c4ccc5c(n4)N(Cc4cccnc4C#N)C(C)(C)C5=O)cn3)c2)nc1)C(=O)O` [BF062, (2S)-2-[[6-[3-[2-[2-[2-[2-[2-[[5-[1-[(2-cyano-3-pyridyl)methyl]-2,2-dimethyl-3-oxo-pyrrolo[2,3-b]pyridin-6-yl]pyrimidin-2-yl]amino]ethoxy]ethoxy]ethoxy]ethoxy]ethylcarbamoyl]phenoxy]pyridine-3-carbonyl]amino]-5,5-dimethyl-hexanoic acid], the equilibrium dissociation constant (Kd) fell in the range of 1 to 10 nM.

For `C[C@@H]1CN(c2ncc(-c3ccc4c(n3)N(Cc3cccnc3C#N)C(C)(C)C4=O)cn2)CCN1C(=O)COCCNC(=O)COc1cccc(Oc2ccc(C(=O)N[C@@H](CCC(C)(C)C)C(=O)O)cn2)c1` [BF064, (S)-2-(6-(3-(2-((8-(2-((R)-4-(5-(1-((2-cyanopyridin-3-yl)methyl)-2,2-dimethyl-3-oxo-2,3-dihydro-1H-pyrrolo[2,3-b]pyridin-6-yl)pyrimidin-2-yl)-2-methylpiperazin-1-yl)-2-oxoethoxy)methyl)amino)-2-oxoethoxy)phenoxy)nicotinamido)-5,5-dimethylhexanoic acid], the equilibrium dissociation constant (Kd) lay in the range of 1 to 10 nM.

On to `CC(C)(C)CC[C@H](NC(=O)c1ccc(Oc2cccc(C(=O)NCCOCCOCCOCCOCCOCCNc3ncc(-c4ccc5c(n4)N(Cc4cccnc4C#N)C(C)(C)C5=O)cn3)c2)nc1)C(=O)O` [BF067, (2S)-2-[[6-[3-[2-[2-[2-[2-[2-[2-[[5-[1-[(2-cyano-3-pyridyl)methyl]-2,2-dimethyl-3-oxo-pyrrolo[2,3-b]pyridin-6-yl]pyrimidin-2-yl]amino]ethoxy]ethoxy]ethoxy]ethoxy]ethoxy]ethylcarbamoyl]phenoxy]pyridine-3-carbonyl]amino]-5,5-dimethyl-hexanoic acid], for which the Kd is less than 1 nM.

Turning to `CC(C)(C)CC[C@H](NC(=O)c1ccc(Oc2cccc(C(=O)NCCOCCOCCOc3ncc(-c4ccc5c(n4)N(Cc4cccnc4C#N)C(C)(C)C5=O)cn3)c2)nc1)C(=O)O` [BF070, (2S)-2-[[6-[3-[2-[2-[2-[5-[1-[(2-cyano-3-pyridyl)methyl]-2,2-dimethyl-3-oxo-pyrrolo[2,3-b]pyridin-6-yl]pyrimidin-2-yl]oxyethoxy]ethoxy]ethylcarbamoyl]phenoxy]pyridine-3-carbonyl]amino]-5,5-dimethyl-hexanoic acid], the equilibrium dissociation constant (Kd) is 1 to 10 nM.

Consider `CC(C)(C)CC[C@H](NC(=O)COc1cccc(Oc2ccc(C(=O)NCCOCCNc3ncc(-c4ccc5c(n4)N(Cc4cccnc4C#N)C(C)(C)C5=O)cn3)cn2)c1)C(=O)O` [BF072, (2S)-2-[[2-[3-[[5-[2-[2-[[5-[1-[(2-cyano-3-pyridyl)methyl]-2,2-dimethyl-3-oxo-pyrrolo[2,3-b]pyridin-6-yl]pyrimidin-2-yl]amino]ethoxy]ethylcarbamoyl]-2-pyridyl]oxy]phenoxy]acetyl]amino]-5,5-dimethyl-hexanoic acid], for which the Kd was less than 1 nM.

As to `Cc1nc2cc(F)c(-c3cnc(OCCCCCn4cc(COCCOCCOCCOCCNC(=O)COc5cccc(Oc6ccc(C(=O)N[C@@H](CCC(C)(C)C)C(=O)O)cn6)c5)nn4)nc3)nc2c(N[C@H](C)c2cc(C#N)ccc2F)c1Cl` [BF084, (2S)-2-[[6-[3-[2-[2-[2-[2-[2-[[1-[5-[5-[7-chloro-8-[[(1R)-1-(5-cyano-2-fluoro-phenyl)ethyl]amino]-3-fluoro-6-methyl-1,5-naphthyridin-2-yl]pyrimidin-2-yl]oxypentyl]triazol-4-yl]methoxy]ethoxy]ethoxy]ethoxy]ethylamino]-2-oxo-ethoxy]phenoxy]pyridine-3-carbonyl]amino]-5,5-dimethyl-hexanoic acid], the dissociation constant (Kd) was 1 to 10 nM.

Consider `Cc1nc2cc(F)c(-c3cnc(OCCOCCOCCOCCOCCOCCOCCNC(=O)COc4cccc(Oc5ccc(C(=O)N[C@@H](CCC(C)(C)C)C(=O)O)cn5)c4)nc3)nc2c(N[C@H](C)c2cc(C#N)ccc2F)c1Cl` [BF085, (2S)-2-[[6-[3-[2-[2-[2-[2-[2-[2-[2-[2-[5-[7-chloro-8-[[(1R)-1-(5-cyano-2-fluoro-phenyl)ethyl]amino]-3-fluoro-6-methyl-1,5-naphthyridin-2-yl]pyrimidin-2-yl]oxyethoxy]ethoxy]ethoxy]ethoxy]ethoxy]ethoxy]ethylamino]-2-oxo-ethoxy]phenoxy]pyridine-3-carbonyl]amino]-5,5-dimethyl-hexanoic acid], for which the Kd was in the range of 1 to 10 nM.

Regarding `Cc1nc2cc(F)c(-c3cnc(OCCOCCn4cc(COCC(=O)N5CC(OCCNC(=O)COc6cccc(Oc7ccc(C(=O)N[C@@H](CCC(C)(C)C)C(=O)O)cn7)c6)C5)nn4)nc3)nc2c(N[C@H](C)c2cc(C#N)ccc2F)c1Cl` [BF088, (2S)-2-[[6-[3-[2-[2-[1-[2-[[1-[2-[2-[5-[7-chloro-8-[[(1R)-1-(5-cyano-2-fluoro-phenyl)ethyl]amino]-3-fluoro-6-methyl-1,5-naphthyridin-2-yl]pyrimidin-2-yl]oxyethoxy]ethyl]triazol-4-yl]methoxy]acetyl]azetidin-3-yl]oxyethylamino]-2-oxo-ethoxy]phenoxy]pyridine-3-carbonyl]amino]-5,5-dimethyl-hexanoic acid], the Kd was 1 to 10 nM.

For the compound `Cc1nc2cc(F)c(-c3cnc(OCCN4CC(n5cc(COCC(=O)N6CC(OCCNC(=O)COc7cccc(Oc8ccc(C(=O)N[C@@H](CCC(C)(C)C)C(=O)O)cn8)c7)C6)nn5)C4)nc3)nc2c(N[C@H](C)c2cc(C#N)ccc2F)c1Cl` [BF089, (2S)-2-[[6-[3-[2-[2-[1-[2-[[1-[1-[2-[5-[7-chloro-8-[[(1R)-1-(5-cyano-2-fluoro-phenyl)ethyl]amino]-3-fluoro-6-methyl-1,5-naphthyridin-2-yl]pyrimidin-2-yl]oxyethyl]azetidin-3-yl]triazol-4-yl]methoxy]acetyl]azetidin-3-yl]oxyethylamino]-2-oxo-ethoxy]phenoxy]pyridine-3-carbonyl]amino]-5,5-dimethyl-hexanoic acid], the Kd was less than 1 nM.

Take `Cc1nc2cc(F)c(-c3cnc(OCCN4CCC(n5cc(COCC(=O)N6CCC(OCCNC(=O)COc7cccc(Oc8ccc(C(=O)N[C@@H](CCC(C)(C)C)C(=O)O)cn8)c7)CC6)nn5)CC4)nc3)nc2c(N[C@H](C)c2cc(C#N)ccc2F)c1Cl` [BF090, (2S)-2-[[6-[3-[2-[2-[[1-[2-[[1-[1-[2-[5-[7-chloro-8-[[(1R)-1-(5-cyano-2-fluoro-phenyl)ethyl]amino]-3-fluoro-6-methyl-1,5-naphthyridin-2-yl]pyrimidin-2-yl]oxyethyl]-4-piperidyl]triazol-4-yl]methoxy]acetyl]-4-piperidyl]oxy]ethylamino]-2-oxo-ethoxy]phenoxy]pyridine-3-carbonyl]amino]-5,5-dimethyl-hexanoic acid]: the Kd was less than 1 nM.

Source of the values: US20250345446A1 (Draupnir Bio ApS, priority 2022, published 2025).
